Data on eight molecules can be found in US9394284B2, “Compounds act at multiple prostaglandin receptors giving a general anti-inflammatory response” (Allergan, Inc., priority 2010, dated 2016).

Holding throughout (type): cell-based
Test [1] concerns the target T1, human prostanoid EP1 receptor (Homo sapiens, UniProt P34995).
T1 construct: expressed in transfected cells
T1 sequence (P34995 1-402): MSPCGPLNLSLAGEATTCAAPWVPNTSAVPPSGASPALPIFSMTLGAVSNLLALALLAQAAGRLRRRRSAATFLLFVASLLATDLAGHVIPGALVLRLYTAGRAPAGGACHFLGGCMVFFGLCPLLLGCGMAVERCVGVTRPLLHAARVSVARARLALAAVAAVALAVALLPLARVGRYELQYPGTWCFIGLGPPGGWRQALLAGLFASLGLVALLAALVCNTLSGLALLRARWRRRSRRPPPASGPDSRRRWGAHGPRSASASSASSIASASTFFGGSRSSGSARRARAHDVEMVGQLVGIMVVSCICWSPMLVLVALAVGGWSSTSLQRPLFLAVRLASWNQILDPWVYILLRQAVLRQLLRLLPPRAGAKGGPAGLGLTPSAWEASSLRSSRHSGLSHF
Put plainly: FLIPR Ca2+ signaling antagonist assay, EP1 receptor stable cell line. The conditions noted are these: HEK-293 EBNA stable cell line; standard agonist PGE2; NA = inactive (no antagonism or Kb 10,000 nM); PAg, Ag not defined. Put shortly: (§1)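 HEK-293 EBNA cells stably expressed the receptor: DP1 with chimeric Gqs, EP3 with Gqi, and EP1 and TP without exogenous G protein. Fluo-4AM-loaded cells were preincubated 4.5 min at 37 °C with antagonist (0.1–30 μM; TP 0.067–1 μM) before agonist serial dilutions. Peak FLIPR fluorescence was normalised to the 10^−6 M agonist control.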

Test [2] addresses T2, human prostanoid EP2 receptor (Homo sapiens, UniProt P43116).
T2 construct: expressed in transfected cells
Put plainly: FLIPR Ca2+ signaling antagonist assay, EP2 receptor stable cell line. The conditions noted are these: HEK-293 EBNA stable cell line; standard agonist PGE2; NA = inactive (no antagonism or Kb 10,000 nM); PAg, Ag not defined. The protocol:
The above compounds were tested for PG antagonist activity as follows using human recombinant prostanoid receptor (DP1, EP1-4, FP, IP and TP) stable cell lines:
In order to measure the response of Gs and Gi coupled prostanoid receptors as a Ca^2+ signal, chimeric G protein cDNAs were used. Stable cell lines over-expressing human prostanoid DP1, EP1-4, FP, IP, and TP receptors were established as follows:
Briefly, human prostanoid DP1, EP2, and EP4 receptor cDNAs were co-transfected with chimeric Gqs cDNA containing a haemagglutanin (HA) epitope; human prostanoid EP3 receptors were co-transfected with chimeric Gqi-HA; human EP1, FP, IP, and TP receptor cDNAs were expressed with no exogenous G-proteins. Gqs and Gqi chimeric cDNAs (Molecular Devices, Sunnyvale, Calif., U.S.A.), as well as cDNAs of prostanoid receptors, were cloned into a pCEP4 vector with a hygromycin B selection marker. Transfection into HEK-293 EBNA (Epstein-Barr virus nuclear antigen) cells was achieved by the FuGENE 6 transfection Reagent (Roche Applied Science, Indianapolis, Ind., USA). Stable transfectants were selected according to hygromycin resistance. Because Gqs and Gqi contained an HA epitope, G-protein expression was detected by Western blotting analysis using anti-mouse HA monoclonal antibody and horseradish peroxidase (HRP)-conjugated secondary antibody, while functional expression of prostanoid receptors was detected by FLIPR screening (Matias et al., 2004). These stable cell lines were validated using previously published antagonists at 10 μM against serial dilutions of standard agonists by FLIPR functional assays for Ca^2+ Signaling (as described below).
Ca^2+ signaling studies were performed using a FLIPR TETRA system (Molecular Devices, Sunnyvale, Calif., USA) in the 384-format. This is a high-throughput instrument for cell-based assays to monitor Ca^2+ signaling associated with GPCRs and ion channels. Cells were seeded at a density of 5×10^4 cells/well in BioCoat poly-D-lysine coated, black wall, clear bottom 384-well plates (BD Biosciences, Franklin lakes, NJ, USA) and allowed to attach overnight in an incubator at 37° C. The cells were then washed twice with HBSS-HEPES buffer (Hanks' balanced salt solution without bicarbonate and phenol red, 20 mM HEPES, pH 7.4) using an ELx405 Select CW Microplate Washer (BioTek, Winooski, Vt., USA). After 60 min of dye-loading in the dark using the Ca^2+-sensitive dye Fluo-4AM (Invitrogen, Carlsbad, Calif., USA), at a final concentration of 2×10^−6M, the plates were washed 4 times with HBSS-HEPES buffer to remove excess dye and leaving 50 μl of buffer in each well. The plates were then placed in the FLIPR TETRA instrument and allowed to equilibrate at 37° C. AGN-211377 was added in a 25 μl volume to each well to give final concentrations of 0.1 μM, 0.3 μM, 1 μM, 3 μM, 10 μM, and 30 μM; or 0.067 μM, 0.1 μM, 0.2 μM, 0.3 μM, 0.67 μM, and 1 μM for cells over-expressing TP receptors. After 4.5 minutes, a 7-point serial dilution of the standard agonist for the corresponding receptor, in a 25 μl volume was injected at the final concentrations from 10^−11M to 10^−5M in 10-fold serial dilution increments for cells expressing human recombinant DP1, EP1, EP2, EP3, EP4, FP, and IP receptors. The dose range for the standard agonist for human recombinant TP receptors was from 10^−12 M to 10^−6 M. HBSS-HEPES buffer was used as the negative control for the standard agonists. Cells were excited with LED (light emitting diode) excitation at 470-495 nm and emission was measured through an emission filter at 515-575 nm. Assay plates were read for 3.5 minutes using the FLIPR^TETRA. The peak increase in fluorescence intensity was recorded for each well. On each plate, negative controls, dose response of positive controls, and co-treatments of antagonist-agonist for each dose were in triplicates.
Standard agonists were as follows: DP=BW 245C, EP1-EP4=PGE2, FP=17-phenyl-PGF2α, IP=Cicaprost, and TP=U-46619. […]

Test [3] concerns the target T3, human prostanoid EP4 receptor (Homo sapiens, UniProt P35408).
T3 construct: expressed in transfected cells
Put plainly: FLIPR Ca2+ signaling antagonist assay, EP4 receptor stable cell line. The conditions noted are these: HEK-293 EBNA stable cell line; standard agonist PGE2; NA = inactive (no antagonism or Kb 10,000 nM); PAg, Ag not defined. Put shortly:
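Peak Fluo-4 fluorescence (ex 470–495, em 515–575 nm) was read for 3.5 min on FLIPR after agonist injection and expressed relative to 10^−6 M standard agonist. Cells were HEK-293 EBNA transfectants. Test compound was added 4.5 min beforehand at 0.1–30 μM, or 0.067–1 μM for TP.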

Test [4] deals with T4, human prostanoid TP receptor (Homo sapiens, UniProt P21731).
T4 construct: expressed in transfected cells
T4 sequence (P21731 1-343): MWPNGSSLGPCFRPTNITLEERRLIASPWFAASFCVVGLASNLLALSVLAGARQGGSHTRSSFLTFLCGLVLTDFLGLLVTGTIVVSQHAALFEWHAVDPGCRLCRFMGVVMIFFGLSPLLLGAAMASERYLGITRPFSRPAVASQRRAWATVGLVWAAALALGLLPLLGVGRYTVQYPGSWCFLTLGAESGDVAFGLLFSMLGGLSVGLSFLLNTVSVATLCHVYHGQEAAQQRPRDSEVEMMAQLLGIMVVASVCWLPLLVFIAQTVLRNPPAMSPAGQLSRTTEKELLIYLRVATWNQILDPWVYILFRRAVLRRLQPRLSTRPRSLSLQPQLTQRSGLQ
Put plainly: FLIPR Ca2+ signaling antagonist assay, TP receptor stable cell line. The conditions noted are these: HEK-293 EBNA stable cell line; standard agonist U-46619; NA = inactive (no antagonism or Kb 10,000 nM); PAg, Ag not defined. Put shortly:
as §1

What is called Kb is the affinity of an antagonist, worked out from how it opposes an agonist. A high value points to a less potent antagonist.

T2 sequence (P43116 whole entry): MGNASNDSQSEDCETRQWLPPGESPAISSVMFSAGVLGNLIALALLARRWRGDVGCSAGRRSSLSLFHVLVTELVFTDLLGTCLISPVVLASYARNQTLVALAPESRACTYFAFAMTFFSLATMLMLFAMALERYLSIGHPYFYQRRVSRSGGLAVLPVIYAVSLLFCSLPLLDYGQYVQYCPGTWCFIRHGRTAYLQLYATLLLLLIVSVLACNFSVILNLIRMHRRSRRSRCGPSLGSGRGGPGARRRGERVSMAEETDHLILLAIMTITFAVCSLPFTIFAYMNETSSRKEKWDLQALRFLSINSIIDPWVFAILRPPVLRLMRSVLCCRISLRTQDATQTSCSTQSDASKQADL
T3 sequence (P35408 whole entry): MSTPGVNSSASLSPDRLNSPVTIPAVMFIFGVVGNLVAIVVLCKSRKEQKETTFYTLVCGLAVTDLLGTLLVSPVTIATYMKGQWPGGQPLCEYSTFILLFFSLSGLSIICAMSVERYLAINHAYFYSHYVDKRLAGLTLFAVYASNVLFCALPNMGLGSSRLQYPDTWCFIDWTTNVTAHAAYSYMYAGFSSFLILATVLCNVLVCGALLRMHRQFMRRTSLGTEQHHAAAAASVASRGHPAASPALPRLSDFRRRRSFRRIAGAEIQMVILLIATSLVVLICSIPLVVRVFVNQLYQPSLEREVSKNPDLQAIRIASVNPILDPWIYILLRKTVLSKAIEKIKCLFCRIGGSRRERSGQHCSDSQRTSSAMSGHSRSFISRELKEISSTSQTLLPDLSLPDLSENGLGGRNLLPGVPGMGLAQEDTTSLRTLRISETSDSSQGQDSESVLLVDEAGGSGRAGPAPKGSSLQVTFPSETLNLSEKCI

With `Cc1cc(CCC(=O)O)nn1Cc1cc(OC(F)(F)F)ccc1OCC1CCCC1` [Example 50, 3-[1-(2-Cyclopentylmethoxy-5-trifluoromethoxy-benzyl)-5-methyl-1H-pyrazol-3-yl]-propionic acid], the Kb is 35 nM in test [1], 4500 nM in test [2], 200 nM in test [3] and 20 nM in test [4].

Regarding `CCC(CC)COc1ccc(Cl)cc1Cn1nc(CC(C)C(=O)O)cc1C` (racemic) [Example 68, 3-{1-[5-Chloro-2-(2-ethyl-butoxy)-benzyl]-5-methyl-1H-pyrazol-3-yl}-2-methyl-propionic acid], the Kb stood at 70 nM in test [1], 45 nM in test [2], 130 nM in test [3] and 16 nM in test [4].

Regarding `Cc1cc(CCC(=O)NS(=O)(=O)c2ccccc2)nn1Cc1cc(Cl)ccc1OCc1ccc(Cl)cc1` [Example 24, N-(3-[1-(5-Chloro-2-(4-chlorobenzyloxy)benzyl)-5-methyl-1H-pyrazol-3-yl]-propionyl)benzenesulfonamide], the Kb in test [1] was 50 nM; in test [2] it was 5500 nM; in test [3], 900 nM; in test [4], 30 nM.

With `Cc1cc(CCC(=O)O)nn1Cc1cc(Cl)ccc1OCC(C)(C)C` [Example 35, 3-[1-(5-Chloro-2-(2,2-dimethylropoxy)benzyl)-5-methyl-1H-pyrazol-3-yl]-propionic acid], the Kb in test [1] was determined as 100 nM; in test [2] it was 3200 nM; in test [3], 500 nM; in test [4] it was 20 nM.

Consider `Cc1cc(CCC(=O)O)nn1Cc1cc(Cl)ccc1OCCCC(C)C` [Example 40, 3-[1-(5-Chloro-2-(4-methylpentyloxy)benzyl)-5-methyl-1H-pyrazol-3-yl]-propionic acid], for which the Kb was 200 nM in test [1], 1400 nM in test [2], 1700 nM in test [3] and 40 nM in test [4].

`Cc1cc(CCC(=O)NS(=O)(=O)C(F)(F)F)nn1Cc1cc(Cl)ccc1OCC1CCCC1` [Example 43, N-(3-[1-(5-Chloro-2-cyclopentylmethoxybenzyl)-5-methyl-1H-pyrazol-3-yl]-propionyl)C,C,C-trifluoromethanesulfon amide]: the Kb in test [1] amounted to 6 nM; in test [3], 80 nM; in test [4], 2 nM. Further, the “EP2 (FLIPR) Kb” value in test [2] was “PAg”.

For the molecule `Cc1cc(CCC(=O)O)nn1Cc1cc(C(F)(F)F)ccc1OCc1ccc(Cl)cc1` [Example 52, 3-[1-[2-(4-Chloro-benzyloxy)-5-trifluoromethyl-benzyl]-5-methyl-1H-pyrazol-3-yl]-propionic acid], the Kb turned out to be 5 nM in test [1], 2200 nM in test [2] and 1500 nM in test [3]. Besides, the “TP (FLIPR) Kb” value in test [4] is “PAg”.

Turning to `Cc1cc(CCC(=O)O)nn1Cc1cc(OC(F)(F)F)ccc1OCc1ccc(Cl)cc1` [Example 51, 3-[1-[2-(4-Chloro-benzyloxy)-5-trifluoromethoxy-benzyl]-5-methyl-1H-pyrazol-3-yl]-propionic acid], the Kb in test [1] came out at 15 nM; in test [2], 500 nM; in test [3], 7000 nM. In test [4], the “TP (FLIPR) Kb” value is given as “Ag”.
